Experimental data from ChEMBL document CHEMBL4024702, “Covalent Modifiers: A Chemical Perspective on the Reactivity of α,β-Unsaturated Carbonyls with Thiols via Hetero-Michael Addition Reactions” (J Med Chem, 2017).
Values belong to the molecule of their own block, whether it stands above or below them. Non-standard residues stand in square brackets, D forms with d. Residues, ends and D or L forms follow the SMILES beside them. *: point of attachment. Cbz = O=C(OCc1ccccc1)*; Dap = NC[C@H](N)C(=O)O

How the values were obtained:
[1] = test system: Proto-oncogene tyrosine-protein kinase Src (Gallus gallus), P00523 [S345C]; assay: Ratio of Kinact to Ki for chicken c-Src S345C mutant (251 to 533 residues) expressed in Escherichia coli
[2] = target: Proto-oncogene tyrosine-protein kinase Src (Gallus gallus, UniProt P00523, S345C); assay: Inhibition of chicken c-Src S345C mutant (251 to 533 residues) expressed in Escherichia coli by fluorescence assay
[3] = Glutathione reactivity of the compound assessed as adduct formation after 2 mins by mass spectrometric analysis
[4] = Cysteine reactivity of the compound assessed as adduct formation after 2 mins by mass spectrometric analysis
[5] = Half life in rat plasma; assay type: ADME, cell-free
[6] = Half life in dog plasma; assay type: ADME, cell-free, Canis lupus familiaris
[7] = Cytotoxicity against human MRC5 cells; assay type: cell-based
Enterovirus = assay: Antiviral activity against rhinovirus infected in human H1HeLa cells; assay type: functional; conditions: H1-HeLa
rhinovirus B14 [8] = assay: Irreversible inhibition of human rhinovirus serotype 14 3C protease assessed as ratio of Kobs/I
[9] = Half life in human plasma; assay type: ADME, cell-free
[10] = Inhibition of wild-type HCV genotype 1b protease using 5-FAM/QXL 520 as substrate after 60 to 90 mins by FRET-based assay; design: species or system Hepatitis C virus subtype 1b
[11] = Glutathione reactivity of the compound in DMSO and phosphate buffer assessed as second order rate constant for adduct formation
[12] = Thiol reactivity of the compound assessed as equilibrium constant for adduct formation
rhinovirus B14 [13] = assay: Antiviral activity against rhinovirus serotype 14 infected in human H1HeLa cells after 2 days by XTT/PMS dye based assay; assay type: functional, cell-based; conditions: Rhinovirus B, H1-HeLa, 48 h
[14] = Reversible inhibition of human rhinovirus serotype 14 3C protease by fluorescence resonance energy transfer assay; design: species or system rhinovirus B14
[15] = Cytotoxicity against human H1HeLa cells after 2 days by XTT/PMS dye based assay; assay type: cell-based, H1-HeLa
Tetrahymena pyriformis = assay: Toxicity in Tetrahymena pyriformis assessed as growth inhibition after 48 hrs
[16] = Glutathione reactivity of the compound in CD3OD/deuterio phosphate buffer assessed as equilibrium constant for adduct formation at pH 7.4 by […] analysis
[17] = Methanethiol reactivity of the compound in CD3OD/deuterio phosphate buffer assessed as equilibrium constant for adduct formation at pH 7.4 by […] analysis
[18] = Butanethiol reactivity of the compound in CD3OD/deuterio phosphate buffer assessed as equilibrium constant for adduct formation at pH 7.4 by […] analysis
[19] = Beta-mercaptoethanol reactivity of the compound in CD3OD/deuterio phosphate buffer assessed as equilibrium constant for adduct formation at pH 7.4 by […] analysis
[20] = Cysteine reactivity of the compound in CD3OD/deuterio phosphate buffer assessed as equilibrium constant for adduct formation at pH 7.4 by […] analysis
[21] = target: Sodium-dependent dopamine transporter (Rattus norvegicus, UniProt P23977); assay: Inhibition of [3H]dopamine uptake at DAT in rat brain striatal synaptosomes by liquid scintillation counting analysis; assay type: subcellular, Striatum
[22] = Cysteine reactivity of the compound assessed as second order rate constant by 1H NMR analysis
[23] = Inhibition of PI3K (unknown origin); design: species or system Homo sapiens
[24] = Binding affinity to human rhinovirus serotype 14 3C protease; design: species or system rhinovirus B14
[25] = target: Adenosylhomocysteinase (Homo sapiens) (UniProt P23526); assay: Ratio of Kinact to Ki for S-adenosyl-L-homocysteine hydrolase (unknown origin)
[26] = target: Adenosylhomocysteinase (Homo sapiens) (UniProt P23526); assay: Inhibition of S-adenosyl-L-homocysteine hydrolase (unknown origin)
[27] = Lysine reactivity of the compound in aqueous buffer assessed as drug recovery after 6 days at pH 7.4
Exportin-1 = Exportin-1 (Homo sapiens, UniProt O14980); assay: Inhibition of CRM1-mediated nucleocytoplasmic transport in human HeLa cells after 90 mins by immunofluorescence assay; assay type: cell-based
[28] = Glutathione reactivity of the compound assessed as second order rate constant by 1H NMR analysis
[29] = Glutathione reactivity of the compound in DMSO/HEPES buffer assessed as second order rate constant for adduct formation at pH 7.4 by spectroscopic analysis
[30] = target: T1, Calpain-1 catalytic subunit (Homo sapiens, UniProt P07384); assay: Inhibition of human calpain 1 protease using Ac-LLY-AFC as substrate after 1 hr by fluorescence assay
T1 sequence (P07384 whole entry): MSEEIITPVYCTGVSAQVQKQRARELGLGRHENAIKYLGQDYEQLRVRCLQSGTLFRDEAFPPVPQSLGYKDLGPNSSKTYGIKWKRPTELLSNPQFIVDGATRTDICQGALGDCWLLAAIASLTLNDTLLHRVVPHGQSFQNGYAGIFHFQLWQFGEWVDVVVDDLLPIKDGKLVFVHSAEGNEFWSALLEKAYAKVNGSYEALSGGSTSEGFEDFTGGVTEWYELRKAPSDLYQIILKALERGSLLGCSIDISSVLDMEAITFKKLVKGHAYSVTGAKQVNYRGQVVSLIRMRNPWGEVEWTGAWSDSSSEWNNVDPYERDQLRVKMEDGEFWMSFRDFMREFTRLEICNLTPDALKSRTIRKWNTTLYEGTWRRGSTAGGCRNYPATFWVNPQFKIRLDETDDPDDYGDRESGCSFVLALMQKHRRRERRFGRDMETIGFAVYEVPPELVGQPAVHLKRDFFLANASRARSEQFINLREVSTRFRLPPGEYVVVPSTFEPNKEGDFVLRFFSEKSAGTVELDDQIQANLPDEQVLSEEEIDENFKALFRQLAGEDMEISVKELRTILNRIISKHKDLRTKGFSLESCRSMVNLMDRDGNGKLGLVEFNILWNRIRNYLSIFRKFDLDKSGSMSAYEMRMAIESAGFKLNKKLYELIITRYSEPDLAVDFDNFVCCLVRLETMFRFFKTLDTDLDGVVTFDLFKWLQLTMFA

Exportin-1, sequence (O14980 whole entry): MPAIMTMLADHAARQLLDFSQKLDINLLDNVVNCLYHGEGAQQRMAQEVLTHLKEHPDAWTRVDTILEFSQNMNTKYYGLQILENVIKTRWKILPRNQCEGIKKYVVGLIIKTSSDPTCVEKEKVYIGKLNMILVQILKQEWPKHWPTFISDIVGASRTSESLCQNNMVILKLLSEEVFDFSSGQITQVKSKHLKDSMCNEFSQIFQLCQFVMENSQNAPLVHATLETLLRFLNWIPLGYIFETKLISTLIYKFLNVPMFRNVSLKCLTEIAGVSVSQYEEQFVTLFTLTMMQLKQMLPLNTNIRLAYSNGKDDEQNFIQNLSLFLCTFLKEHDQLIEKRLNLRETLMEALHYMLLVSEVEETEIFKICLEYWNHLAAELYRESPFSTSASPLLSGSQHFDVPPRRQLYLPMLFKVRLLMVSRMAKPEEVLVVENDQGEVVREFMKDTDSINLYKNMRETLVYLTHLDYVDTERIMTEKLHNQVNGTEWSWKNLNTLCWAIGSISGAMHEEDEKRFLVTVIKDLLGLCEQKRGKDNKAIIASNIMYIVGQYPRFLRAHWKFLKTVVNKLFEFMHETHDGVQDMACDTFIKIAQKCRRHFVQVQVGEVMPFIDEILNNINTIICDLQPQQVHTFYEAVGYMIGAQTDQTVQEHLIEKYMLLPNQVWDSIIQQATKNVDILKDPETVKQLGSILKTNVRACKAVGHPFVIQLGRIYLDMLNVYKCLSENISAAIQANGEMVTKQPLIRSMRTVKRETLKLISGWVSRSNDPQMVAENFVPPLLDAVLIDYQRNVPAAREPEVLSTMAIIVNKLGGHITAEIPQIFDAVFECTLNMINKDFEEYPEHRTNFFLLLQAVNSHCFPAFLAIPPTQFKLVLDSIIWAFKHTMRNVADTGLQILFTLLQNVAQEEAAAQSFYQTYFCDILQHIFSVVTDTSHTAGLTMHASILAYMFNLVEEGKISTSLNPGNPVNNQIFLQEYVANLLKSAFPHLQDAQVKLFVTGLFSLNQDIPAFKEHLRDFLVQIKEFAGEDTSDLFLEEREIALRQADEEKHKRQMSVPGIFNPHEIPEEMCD
Sodium-dependent dopamine transporter, sequence (P23977 whole entry): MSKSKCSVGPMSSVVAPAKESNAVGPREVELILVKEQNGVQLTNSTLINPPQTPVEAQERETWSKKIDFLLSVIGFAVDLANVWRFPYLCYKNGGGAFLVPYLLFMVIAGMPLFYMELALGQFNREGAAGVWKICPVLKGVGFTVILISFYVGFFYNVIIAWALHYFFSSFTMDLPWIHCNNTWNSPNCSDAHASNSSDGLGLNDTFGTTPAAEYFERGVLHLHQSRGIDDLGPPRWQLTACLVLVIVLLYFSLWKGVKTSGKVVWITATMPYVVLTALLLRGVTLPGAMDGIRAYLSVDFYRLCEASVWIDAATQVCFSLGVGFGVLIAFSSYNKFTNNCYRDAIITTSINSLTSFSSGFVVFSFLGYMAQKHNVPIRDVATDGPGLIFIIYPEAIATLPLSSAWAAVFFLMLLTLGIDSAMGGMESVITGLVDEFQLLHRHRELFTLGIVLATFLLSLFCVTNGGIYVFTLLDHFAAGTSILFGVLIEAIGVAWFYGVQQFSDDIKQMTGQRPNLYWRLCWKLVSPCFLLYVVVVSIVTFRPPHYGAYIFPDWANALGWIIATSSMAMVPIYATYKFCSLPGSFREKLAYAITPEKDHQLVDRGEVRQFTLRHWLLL
Adenosylhomocysteinase (Homo sapiens), sequence (P23526 2-432 limits assumed): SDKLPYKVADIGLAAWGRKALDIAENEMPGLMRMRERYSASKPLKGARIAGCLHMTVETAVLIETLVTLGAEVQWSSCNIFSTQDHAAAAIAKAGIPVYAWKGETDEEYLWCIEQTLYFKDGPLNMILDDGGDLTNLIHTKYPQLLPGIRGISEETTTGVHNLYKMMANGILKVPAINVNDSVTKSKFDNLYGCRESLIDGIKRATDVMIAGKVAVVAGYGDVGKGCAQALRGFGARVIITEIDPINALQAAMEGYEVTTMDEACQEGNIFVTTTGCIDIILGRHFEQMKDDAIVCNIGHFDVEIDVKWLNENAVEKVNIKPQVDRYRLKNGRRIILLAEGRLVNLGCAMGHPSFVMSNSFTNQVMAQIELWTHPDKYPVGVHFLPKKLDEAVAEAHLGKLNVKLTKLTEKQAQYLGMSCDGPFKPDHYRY

Ratio [1]: 1.03 M⁻¹ s⁻¹ | IC50 [2]: 0.002 µM
SMILES: C=CS(=O)(=O)Nc1ccc2ncnc(Nc3cccc(Br)c3)c2c1

SMILES: CCCCC[C@@H](O)C/C=C1/C(=O)C=C[C@@H]1C/C=C\CCCC(=O)O
Drug metabolism [3]: 70% | Drug metabolism [4]: 85%

half-life [5]: < 2 min | half-life [6]: > 1 h | EC90 (Enterovirus): 0.018 to 0.261 µM | Ratio (rhinovirus B14 [8]): 1.47 ×10⁶ /M/s | half-life [9]: > 1 h
SMILES: CCOC(=O)/C=C/C(C[C@@H]1CCNC1=O)NC(=O)[C@@H](CC(=O)[C@@H](NC(=O)c1cc(C)on1)C(C)C)Cc1ccc(F)cc1 (some centres undefined)
CC50 [7]: > 100 µM

Ratio [1]: 0.085 M⁻¹ s⁻¹ | IC50 [2]: 0.24 µM
SMILES: CN(C)C/C=C/C(=O)Nc1ccc2ncnc(Nc3cccc(Br)c3)c2c1

IC50 [10]: 0.004 µM
SMILES: C=CC(=O)N[C@H](C)C(=O)N1C[C@H](Oc2nccc3ccc(Br)cc23)C[C@H]1C(=O)N[C@]1(C(=O)CS(=O)(=O)C2CC2)C[C@H]1C=C

SMILES: O=C1C=CCC1
K [11]: 25.6 M⁻¹ s⁻¹ | Ke [12]: 3900 M⁻¹

SMILES: CC(C)C[C@H](NC(=O)OCc1ccccc1)C(=O)N[C@@H](Cc1ccccc1)C(=O)N[C@H](/C=C1\CCCOC1=O)CCC(N)=O
EC50 (rhinovirus B14 [13]): 16 µM | Ki [14]: 0.03 µM | CC50 at 48 h [15]: > 100 µM

SMILES: CC1=CC(=O)CC1
EC50 (Tetrahymena pyriformis): 20900 µM | K [11]: 0.074 M⁻¹ s⁻¹ | Ke [12]: 0.88 M⁻¹

SMILES: CCCCC[C@H](O)/C=C/[C@H]1C=CC(=O)[C@@H]1CCCCCCC(=O)OC
Ke [16]: 6.1 to 10.8 M⁻¹ | Ke [17]: 6.1 to 10.8 M⁻¹ | Ke [18]: 6.1 to 10.8 M⁻¹ | Ke [19]: 6.1 to 10.8 M⁻¹ | Ke [20]: 6.1 to 10.8 M⁻¹

IC50 [21]: 46.8 µM
SMILES: CCN1C(=O)C=CC1=O [N-ETHYLMALEIMIDE]
K [22]: 3750 M⁻¹ s⁻¹

IC50 [23]: 0.0005 µM
SMILES: CO[C@H]1OC(=O)/C(=C\Sc2ccccc2)C2=C(O)C(=O)C3=C([C@H](OC(C)=O)C[C@]4(C)C(=O)CC[C@@H]34)[C@]21C

IC50 [10]: 1.15 µM
SMILES: C=C[C@@H]1C[C@]1(NC(=O)[C@@H]1C[C@@H](Oc2nccc3ccc(Br)cc23)CN1C(=O)[C@@H](C)NC(=O)CC)C(=O)CS(=O)(=O)C1CC1

SMILES: CC(=O)NC[C@@H](C=O)NC(=O)[C@H](Cc1ccccc1)NC(=O)[C@H](CC(C)C)NC(=O)OCc1ccccc1 (Cbz-Leu-Phe-[Dap](Ac)-aldehyde)
Ki [24]: 0.006 µM

Ratio [25]: 152 M⁻¹ s⁻¹ | K [26]: 84.9 M⁻¹ s⁻¹
SMILES: COC1=C(OC)/C(=C/Cn2cnc3c(N)ncnc32)OC1=O

SMILES: C=C(C)C(=O)O[C@H]1CC2=C[C@@H](C[C@@]3(C)O[C@H]3[C@H]3OC(=O)C(=C)[C@@H]31)OC2=O
Drug recovery [27]: 75% | K [22]: 20 M⁻¹ s⁻¹

SMILES: CCC(=C/[C@H](C)C/C=C/C(C)=C/[C@@H](C)C(=O)[C@@H](C)[C@H](O)[C@@H](C)C/C(C)=C/C(=O)O)/C=C/[C@@H]1OC(=O)C=C[C@@H]1C [LEPTOMYCIN B]
IC50 (Exportin-1): 0.001 µM

SMILES: C=C1CCOC1=O
K [28]: 1.3 ×10⁻⁴ /M/s

SMILES: COC[C@H]1OC(=O)c2coc3c2[C@@]1(C)C1=C(C3=O)[C@@H]2CCC(=O)[C@@]2(C)C[C@H]1OC(C)=O [WORTMANNIN]
IC50 [23]: 0.0008 µM

SMILES: CCN(CC)c1ccc2cc(C(CC(C)=O)SC[C@H](NC(=O)CC[C@H](N)C(=O)O)C(=O)NCC(=O)O)c(=O)oc2c1 (some centres undefined)
K [29]: 0.007 M⁻¹ s⁻¹

SMILES: CCCCC[C@H](O)/C=C/[C@H]1C=CC(=O)/C1=C/CCCCCC(=O)OC
Ke [16]: 0.35 to 1.6 M⁻¹ | Ke [17]: 0.35 to 1.6 M⁻¹ | Ke [18]: 0.35 to 1.6 M⁻¹ | Ke [19]: 0.35 to 1.6 M⁻¹ | Ke [20]: 0.35 to 1.6 M⁻¹

SMILES: C=C1C(=O)O[C@H]2[C@H]1[C@H](OC(=O)/C(C)=C\C)CC(=C)[C@@H]1[C@H](O)[C@H]3O[C@@]3(C)[C@@]12O
Drug recovery [27]: 75% | K [22]: 42 M⁻¹ s⁻¹

IC50 [23]: 0.0003 µM
SMILES: CO[C@H]1OC(=O)/C(=C\N(C2CC2)C2CC2)C2=C(O)C(=O)C3=C([C@H](OC(C)=O)C[C@]4(C)C(=O)CC[C@@H]34)[C@]21C

IC50 (Exportin-1): 0.01 µM
SMILES: C/C=C(\C)C[C@H](C)[C@@H](O)[C@H](C)C(=O)[C@H](C)/C=C(C)/C=C/C[C@@H](C)/C=C(\C=C\[C@H]1CC=CC(=O)O1)CC

IC50 (Exportin-1): 0.025 µM
SMILES: CCC(=C/C(C)C)/C=C/[C@@H]1OC(=O)C=C[C@@H]1C

SMILES: CC1C(=O)CCC1Sc1ccccc1 (centres undefined)
Ke [12]: 1.28 M⁻¹

SMILES: C=CC=O [ACROLEIN]
IC50 [21]: 52.5 µM

SMILES: CCCCC[C@@H](O)C/C=C1/C(=O)C[C@H](O)[C@@H]1C/C=C\CCCC(=O)O
Drug metabolism [4]: 60%

SMILES: C=C[C@@]12COC(=O)C(=C)[C@@H]1[C@H]1OC(=O)C(=C)[C@@H]1[C@@H](O)C2
Drug recovery [27]: 75% | K [22]: 200 M⁻¹ s⁻¹

IC50 [23]: 0.0001 µM
SMILES: CO[C@H]1OC(=O)/C(=C\SC(C)C)C2=C(O)C(=O)C3=C([C@H](OC(C)=O)C[C@]4(C)C(=O)CC[C@@H]34)[C@]21C

SMILES: CCN(CC)c1ccc2cc(C(CC(=O)OC)SC[C@H](NC(=O)CC[C@H](N)C(=O)O)C(=O)NCC(=O)O)c(=O)oc2c1 (some centres undefined)
K [29]: 0 M⁻¹ s⁻¹

IC50 [10]: 0.002 µM
SMILES: C=CC(=O)NCC(=O)N1C[C@H](Oc2nccc3ccc(Br)cc23)C[C@H]1C(=O)N[C@]1(C(=O)CS(=O)(=O)C2CC2)C[C@H]1C=C

SMILES: C=CC(C)=O
IC50 [21]: 331 µM

IC50 [30]: 0.003 to 0.079 µM
SMILES: CCCCCC/C=C\CC(=O)N[C@@H](CO)C(=O)N[C@H](C(=O)N[C@@H](CO)[C@@H](O)CC(=O)N[C@H](C(=O)N[C@@H]1/C=C/C(=O)N[C@@H](C(C)C)C(=O)N(C)[C@@H](Cc2ccc(O)cc2)C(=O)OC1)C(C)C)C(C)C
